As a reminder, the IC50 is the concentration needed to halve the response being measured.

In one experiment the test system is MAPK. The experiment in a line: EGF-induced MAPK phosphorylation in A431 cells (Western blot). Conditions: A431, at concentrations as low as 1 μM. The format is cell-based, human. The protocol:
For the inhibition study of mitogen-activated protein kinase (MAPK) activation by BJ2000, protein lysates were obtained as described above and a Western blot was performed (39). The membrane was incubated with anti-phosphorylated MAPK antibodies or antibodies specific for MAPK (Cell Signaling, Beverly, Mass., USA).

A further experiment addresses EGFR (Homo sapiens, UniProt P00533). As to the kind of experiment: EGFR TK ELISA with PGT substrate (competitive binding at the ATP site). Type of experiment: biochemical. Set-up: purchased BIOMOL (Plymouth Meeting); also a gift from Pfizer Inc. The protocol:
The ability of the combi-molecules to block EGFR TK activity was determined by an ELISA assay using poly(L-glutamic acid-L-tyrosine, 4:1) PGT as a substrate and commercially available EGFR.
Nunc MaxiSorp 96-well plates were incubated overnight at 37° C. with 100μL per well of 0.25 mg/mL PGT in PBS. Excess PGT was removed and the plates were washed 3 times with Tween 20 (0.1%) in PBS. […] The compound was added and phosphorylation initiated by the addition of ATP (20 μM). After 8 min at room temperature with constant shaking, the reaction was terminated by the aspiration of the reaction mixture and by rinsing the plate 4 times with wash buffer (Tween 20 (0.1%) in PBS). […] Antibody was removed by aspiration, and the plates washed 4 times with wash buffer. The signals were developed by the addition of 50 μL per well of TMB peroxidase substrate (Kierkegaard and Perry Laboratories, Gaithersberg, Md.).
This assay is similar to the one previously described. Nunc MaxiSorp 96-well plates were incubated overnight at 37° C. with 100 μl/well of 25 ng/ml PGT in PBS. Excess PGT was removed and the plates were washed three times with wash buffer (Tween 20 (0.1%) in PBS). […] The compound was added and phosphorylation initiated by the addition of ATP (20 μM). After 8 min at room temperature with constant shaking, the reaction was terminated by aspirating the mixture and by rinsing the plates four times with wash buffer Tween 20 (0.1%) in PBS. […] Antibody was removed by aspiration, and the plate washed four times with wash buffer. The signals were developed by the addition of 50 μl/well of 3,3′,5,5′-tetramethylbenzidine (TMB) peroxidase substrate (Kierkegaard and Perry Laboratories, Gaithersberg, Md., USA).
(ELISA stands for enzyme-linked immunosorbent assay.)

“Also recorded” adds a separate entry of the source.

Sequence of EGFR (P00533 25-1210): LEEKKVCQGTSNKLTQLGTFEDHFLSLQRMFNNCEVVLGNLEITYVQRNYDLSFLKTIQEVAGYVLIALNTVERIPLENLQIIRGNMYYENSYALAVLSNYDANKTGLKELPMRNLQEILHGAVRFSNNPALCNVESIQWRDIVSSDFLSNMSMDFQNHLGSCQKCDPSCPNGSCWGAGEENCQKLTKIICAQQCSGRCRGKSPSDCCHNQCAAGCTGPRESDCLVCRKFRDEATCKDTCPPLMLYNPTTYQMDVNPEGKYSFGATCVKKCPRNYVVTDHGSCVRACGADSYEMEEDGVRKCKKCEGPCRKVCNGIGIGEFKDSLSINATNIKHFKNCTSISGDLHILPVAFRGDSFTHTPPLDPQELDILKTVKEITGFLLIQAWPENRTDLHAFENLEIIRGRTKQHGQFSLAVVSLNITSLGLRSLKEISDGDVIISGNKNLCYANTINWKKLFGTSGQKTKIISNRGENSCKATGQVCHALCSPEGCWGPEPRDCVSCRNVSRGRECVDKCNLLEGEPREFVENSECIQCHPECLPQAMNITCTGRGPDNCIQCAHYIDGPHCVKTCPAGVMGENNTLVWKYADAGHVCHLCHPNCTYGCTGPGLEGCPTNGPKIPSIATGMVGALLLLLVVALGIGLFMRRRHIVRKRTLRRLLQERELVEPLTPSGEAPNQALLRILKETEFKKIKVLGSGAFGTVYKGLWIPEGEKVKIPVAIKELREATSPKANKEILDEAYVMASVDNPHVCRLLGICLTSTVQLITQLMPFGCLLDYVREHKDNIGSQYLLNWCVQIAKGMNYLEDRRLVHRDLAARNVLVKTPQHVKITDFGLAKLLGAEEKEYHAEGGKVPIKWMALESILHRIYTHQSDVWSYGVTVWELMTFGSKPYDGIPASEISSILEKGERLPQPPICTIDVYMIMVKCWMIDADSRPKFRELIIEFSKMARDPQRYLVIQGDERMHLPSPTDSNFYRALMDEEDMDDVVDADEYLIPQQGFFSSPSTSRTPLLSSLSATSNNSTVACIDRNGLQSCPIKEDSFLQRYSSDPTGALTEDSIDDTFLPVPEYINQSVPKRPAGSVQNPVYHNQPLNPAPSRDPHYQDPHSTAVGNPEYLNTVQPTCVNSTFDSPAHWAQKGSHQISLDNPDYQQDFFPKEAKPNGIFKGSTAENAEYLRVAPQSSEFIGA

For `CNN=Nc1ccc2ncnc(Nc3cccc(Cl)c3)c2c1` [BJ2000], the “inhibition of EGF-induced MAPK phosphorylation” value with MAPK was “complete inhibition; also recorded: block MAPK phosphorylation”. Besides, on EGFR, the “fold stronger affinity than SMA41” value amounted to 2 fold. Moreover, the IC50 at EGFR (ELISA, PGT substrate, purified EGFR, ATP 20 μM, 8 min, read-out: IC50, inhibition of EGFR TK (competitive binding at ATP site)) is 100 nM. Further, the “fold greater EGFR binding affinity than metabolite FD105” value at EGFR (purified EGFR, ATP site) was 2 fold.

The record behind these values is patent US7572798B2, “Combi-molecules having signal transduction inhibitory properties and DNA damaging properties” (McGill University, priority 2001, dated 2009).
